According to patent EP4810009A1, “MELANOGENESIS INHIBITOR AND EXTERNAL PREPARATION FOR SKIN CONTAINING SAME” (MITSUBISHI GAS CHEMICAL COMPANY, INC., priority 2023, dated 2025):

What was measured:
[1] = system: pig skin; assay: Chemical peeling ability; details: aqueous solution of 7% by weight of organic acid on pig skin for 24 hours; decrease of stratum corneum thickness
Experimental: An aqueous solution of 7% by weight of organic acid was allowed to act on to pig skin for 24 hours. If the thickness of the stratum corneum decreased by 10% or more, it was evaluated as A; if it decreased by less than 10%, it was evaluated as B.

[2] = system: Cutibacterium acnes NBRC 107605; assay: Ability to eliminate acne bacteria; assay type: cell-based; details: 0.05 mL of aqueous solution of 7% by weight of organic acid added to 5 mL test solution; viable cell count after 60 seconds
Experimental: 0.05 mL of an aqueous solution of 7% by weight of organic acid was added dropwise to 5 mL of a test solution containing the bacterial strain Cutibacterium acnes NBRC 107605 at a concentration of 10^8 CFU/mL. After 60 seconds, if the viable cell count was less than 1%, it was evaluated as A; if the viable cell count was 1% or more, it was evaluated as B. [Table 10]

[3] = Solubility in oils (saturated solubility of oleic acid in organic acid solution); assay type: physicochemical; details: oleic acid in aqueous solution of 50% by weight of organic acid; room temperature (23°C), 24 hours
Experimental: Oleic acid was added into an aqueous solution of 50% by weight of organic acid, and the mixed solution was then stirred at room temperature (23°C) for 24 hours.

[4] = Solubility in oils and fats (saturated solubility of palmitic acid in organic acid solution); assay type: physicochemical; details: palmitic acid in aqueous solution of 50% by weight of organic acid; room temperature (23°C), 24 hours
Experimental: Palmitic acid was added into an aqueous solution of 50% by weight of organic acid, and the mixed solution was then stirred at room temperature (23°C) for 24 hours.

[5] = system: B16 melanoma; assay: Evaluation of melanin production inhibitory activity; assay type: cell-based, mouse; details: 100 µM methyl lactic acid, pH 6.5 with NaOH; one day of culture; compared with kojic acid 1 mM positive control; Figure 1
Experimental: As melanin-producing cells, mouse-derived skin melanoma cells, B16 melanoma (JCRB0202, purchased from JCRB Cell Bank) were used. As a medium for cell culture, 500 mL of E-MEM medium was mixed with 5 mL of x 100 penicillin-streptomycin solution and 100 mL of inactivated fetal bovine serum (manufactured by West Bio), and the resulting medium was used. For the subculture of cells, the cells were washed with a phosphate buffer (manufactured by GIBCO), and were detached from the vessel with 0.25% trypsin and EDTA (ethylenediaminetetraacetic acid), followed by addition of a medium, and the obtained mixture was centrifugated to separate the cels. To ensure stable cell culture, the cell concentration was adjusted to 5 to 16 x 10^4 cells/mL, and the cells were then cultured in a 10-cm petri dish or a plastic culture flask (175 cm^2) in the presence of 5% carbon dioxide at 37°C. […] The absorbance at 450 nm was measured using a plate reader, and the melanin concentration was calculated. […] The melanin production percentage (%) shown in Figure 1 is a relative value (%) in a case where the melanin concentration in the negative control is taken as 100%, and for each case, it is an average value of the values measured for 12 samples.

[6] = system: B16 melanoma; assay: Cytotoxicity test (Cell counting Kit 8); assay type: cell-based, mouse; details: 100 µM methyl lactic acid, one day of culture, Figure 2
Experimental: Cell culture was performed by the same method as that in Example 1 mentioned above.
The test sample was prepared by the same method as that in Example 1 mentioned above.
Cells were detached from the culture obtained under the cell culture conditions described in Example 1, and 0.1 mL of cells and medium were each seeded into a 96-well vessel to a cell concentration of 5 x 10^4 cells/mL. After one day of culture, the medium was removed and replaced with the test sample. After one further day of culture, the vessel was washed with an assay medium, and 0.1 mL each of a 1 : 9 mixed solution of Cell counting Kit 8 and medium was added. After the mixture had been left at rest at 37°C for 30 minutes in the presence of 5% carbon dioxide, the absorbance at 450 nm was measured using a plate reader, and the cell count was calculated.
The cell count (%) is a relative value (%) in a case where the cell count in the negative control (medium alone) is taken as 100%, and for each case, it is an average value of the values measured for 16 samples.

[7] = system: tyrosinase; assay: Tyrosinase biosynthesis inhibitory action test (DOPA-melanin per unit protein in cell lysate); assay type: cell-based; details: normal human melanocytes; 2.5, 5, 10, 20, and 40 mM; one day of culture; Figure 3
Experimental: (§1) Normal human melanocytes (manufactured by Kurabo Industries, Ltd.) were used as melanin-producing cells. As a medium for the cells, Dermalife (manufactured by Kurabo Industries, Ltd.) was used. The cell concentration was adjusted to 3 x 10^4 cells/mL, and the cells were cultured in a 96-well plate in the presence of 5% carbon dioxide at 37°C for 24 hours.
(§2) As a test sample, NaOH was added to methyl lactic acid to adjust the pH to 6.5, and was used. […]. As a control, Dermalife, into which methyl lactic acid was not added, was used.
The medium was removed from the culture obtained under the aforementioned cell culture conditions and replaced with the test sample. After one day of culture, the medium was removed, and a phosphate buffer containing 0.5% Triton X-100 was added in an amount of 50 µL/well. The cells were lysed by agitation. 50 µL of the cell lysate was mixed with 50 µL of phosphate buffer containing 2 mM DOPA, and the obtained mixture was then incubated at 37°C for 2 hours. The absorbance (measurement wavelength: 405 nm, reference wavelength: 650 nm) was measured, and the amount of DOPA-melanin was calculated from a calibration curve. The amount of the protein was quantified using a BCA protein assay kit (Thermo), and the amount of DOPA-melanin per unit protein was then calculated to confirm tyrosinase biosynthesis inhibitory action. […]

[8] = system: tyrosinase protein; assay: Tyrosinase protein expression inhibition test (Western blot); assay type: cell-based; details: normal human melanocytes; 20 mM; 48 hours; Figure 4
Experimental: as §1, with “Industries” for “Industries,”, “Dermalife” for “Dermalife (manufactured by Kurabo Industries, Ltd.)”, “10^5 cells/1.5 mL,” for “10^4 cells/mL,”, “6-well” for “96-well”
as §2
The medium was replaced with the test sample (1.5 mL/well) and cultured for 48 hours. After removing the medium, proteins were extracted using M-PER™ Mammalian Protein Extraction Reagent (manufactured by Themo), and were then developed by SDS-PAGE. After the resultant had been transferred onto a polyvinylidene difluoride (PVDF) membrane, the membrane was blocked with 5% skim milk. After a reaction had been performed with an anti-tyrosinase antibody (manufactured by Santa Cruz Biotechnology) for 1 hour, the membrane was further reacted with an HRP-conjugated secondary antibody (manufactured by abcam) for an additional 1 hour. Protein bands were detected using Ez West Blue W (manufactured by ATTO). The signal intensity of the resulting bands was detected using the image processing software ImageJ, and the relative protein expression levels were calculated. […]

[9] = system: tyrosinase mRNA; assay: Evaluation of suppression of melanin synthesis-related factor mRNA expression (Real-time PCR); assay type: cell-based; details: normal human melanocytes; 10 and 20 mM; 24 hours; Figure 5
Experimental: Normal human melanocytes (manufactured by Kurabo Industries, Ltd.) were used as melanin-producing cells. As a medium for the cells, […] was used. The cell concentration was adjusted to 3 x 10^4 cells/mL, and the cells were cultured in a 96-well plate in the presence of 5% carbon dioxide at 37°C for 24 hours. As a test sample, NaOH was added to methyl lactic acid to adjust the pH to 6.5, and was used. […] As a control, […], into which methyl lactic acid was not added, was used. The medium was replaced with the test sample (100 μL/well) and cultured for 24 hours. After removing the medium, RNA was extracted using Cells-to-Ct kit (manufactured by Themo), and was then subjected to reverse transcription to synthesize cDNA. Using the resulting cDNA, Real-time PCR was carried out, and the relative expression level of mRNA was calculated. In Figure 5, "Control" is a negative control, which uses a medium without the test sample.

SMILES	Chemical peeling ability [1]	Ability to eliminate acne bacteria [2]	Solubility in oils [3]	Solubility in oils and fats [4]	melanogenesis-inhibiting effect (melanin production percentage) [5]	cytotoxicity (cell count) [6]	tyrosinase biosynthesis inhibitory action (DOPA-melanin per unit protein) [7]	tyrosinase protein expression inhibitory action (relative expression level of tyrosinase protein) [8]	tyrosinase mRNA expression-suppressing action (relative expression level of tyrosinase mRNA) [9]
CC(O)C(=O)O (centres unmarked) [Lactic acid]	A (If the thickness of the stratum corneum decreased by 10% or more, it was evaluated as A)	A (if the viable cell count was less than 1%, it was evaluated as A)							
O=C(O)CO [Glvcolic acid]	A (If the thickness of the stratum corneum decreased by 10% or more, it was evaluated as A)	A (if the viable cell count was less than 1%, it was evaluated as A)							
O=c1cc(CO)occ1O [Kojic acid, reference compound]	B (if it decreased by less than 10%, it was evaluated as B)	B (if the viable cell count was 1% or more, it was evaluated as B)	B (if it was less than 200 ppm, it was evaluated as B)	B (if it was less than 20 ppm, it was evaluated as B)					
CC(C)(O)C(=O)O [Methyl lactic acid, 2-hydroxyisobutyric acid]	A (If the thickness of the stratum corneum decreased by 10% or more, it was evaluated as A)	A (if the viable cell count was less than 1%, it was evaluated as A)	A (if the saturated solubility of oleic acid was 200 ppm or more, it was evaluated as A)	A (if the saturated solubility of palmitic acid was 20 ppm or more, it was evaluated as A)	the same melanogenesis-inhibiting effect as the addition of kojic acid	cytotoxicity was not confirmed	a tyrosinase biosynthesis inhibitory action was exhibited in a dose-dependent manner	a tyrosinase protein expression inhibitory action was exhibited	exhibited a tyrosinase mRNA expression-suppressing action
